Results: patent US11932636B2, “RAD51 inhibitors” (Cyteir Therapeutics, Inc., priority 2019, dated 2024)

Each molecule was assayed on Daudi cells (AID positive) (assay: Compound primary screening: cell death in AID positive Daudi cells (Cell-Titer Glo, Day 7)). Conditions: Homo sapiens, 168 h; Daudi cells, AID positive; cell death on Day 7, Cell-Titer Glo; read-out: Cellular activity in AID + (Daudi).
Type: cell-based
How it was run: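 AID-positive Daudi cells were seeded at 1250 cells per well and treated with serially diluted compound delivered from a DMSO/media master plate. Cultures were incubated at 37 °C, and cell death was measured on Day 7 with Cell-Titer Glo luminescence.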

Row | SMILES | EC50
1 | CCNS(=O)(=O)c1cc(NC2(C)COC2)ccc1-c1cnc([C@H]2CC[C@H](NC(=O)OC(C)C)CC2)s1 [Compound 116, isopropyl trans-N-[4-[5-[2-(ethylsulfamoyl)-4-[(3-methyloxetan-3-yl)amino]phenyl]thiazol-2-yl]cyclohexyl]carbamate] | < 100 nM
2 | CCNS(=O)(=O)c1cc(N(C)c2nccn2C)ccc1-c1cnc([C@H]2CC[C@H](NC(=O)OC(C)C)CC2)s1 [Compound 117, isopropyl trans-N-[4-[5-[2-(ethylsulfamoyl)-4-[methyl(1-methyl-1H-imidazol-2-yl)amino]phenyl]thiazol-2-yl]cyclohexyl]carbamate] | 100 to 1000 nM
3 | CCNS(=O)(=O)c1cc(Nc2nnco2)ccc1-c1cnc([C@H]2CC[C@H](NC(=O)OC(C)C)CC2)s1 [Compound 118, isopropyl trans-N-[4-[5-[2-(ethylsulfamoyl)-4-[(1,3,4-oxadiazol-2-yl)amino]phenyl]thiazol-2-yl]cyclohexyl]carbamate] | 100 to 1000 nM
4 | CCNS(=O)(=O)c1cc(Nc2nncs2)ccc1-c1cnc([C@H]2CC[C@H](NC(=O)OC(C)C)CC2)s1 [Compound 119, isopropyl trans-N-[4-[5-[2-(ethylsulfamoyl)-4-[(1,3,4-thiadiazol-2-yl)amino]phenyl]thiazol-2-yl]cyclohexyl]carbamate] | < 100 nM
5 | CCNS(=O)(=O)c1cc(Nc2cn[nH]c2)ccc1-c1cnc([C@H]2CC[C@H](NC(=O)OC(C)C)CC2)s1 [Compound 120, isopropyl trans-N-[4-[5-[2-(ethylsulfamoyl)-4-[(1H-pyrazol-4-yl)amino]phenyl]thiazol-2-yl]cyclohexyl]carbamate] | < 100 nM
6 | CCNS(=O)(=O)c1cc(Nc2ccn[nH]2)ccc1-c1cnc([C@H]2CC[C@H](NC(=O)OC(C)C)CC2)s1 [Compound 121, isopropyl trans-N-[4-[5-[2-(ethylsulfamoyl)-4-[(1H-pyrazol-5-yl)amino]phenyl]thiazol-2-yl]cyclohexyl]carbamate] | < 100 nM
7 | CCNS(=O)(=O)c1cc(Nc2cnccn2)ccc1-c1cnc([C@H]2CC[C@H](NC(=O)OC(C)C)CC2)s1 [Compound 122, isopropyl trans-N-[4-[5-[2-(ethylsulfamoyl)-4-[(pyrazin-2-yl)amino]phenyl]thiazol-2-yl]cyclohexyl]carbamate] | < 100 nM
8 | CCNS(=O)(=O)c1cc(Nc2cccnn2)ccc1-c1cnc([C@H]2CC[C@H](NC(=O)OC(C)C)CC2)s1 [Compound 123, isopropyl trans-N-[4-[5-[2-(ethylsulfamoyl)-4-[(pyridazin-3-yl)amino]phenyl]thiazol-2-yl]cyclohexyl]carbamate] | < 100 nM
9 | CCNS(=O)(=O)c1cc(Nc2ccncn2)ccc1-c1cnc([C@H]2CC[C@H](NC(=O)OC(C)C)CC2)s1 [Compound 124, isopropyl trans-N-[4-[5-[2-(ethylsulfamoyl)-4-[(pyrimidin-4-yl)amino]phenyl]thiazol-2-yl]cyclohexyl]carbamate] | < 100 nM
10 | CCNS(=O)(=O)c1cc(Nc2ccncc2)ccc1-c1cnc([C@H]2CC[C@H](NC(=O)OC(C)C)CC2)s1 [Compound 125, isopropyl trans-N-[4-[5-[2-(ethylsulfamoyl)-4-[(pyridin-4-yl)amino]phenyl]thiazol-2-yl]cyclohexyl]carbamate] | < 100 nM
11 | CCNS(=O)(=O)c1cc(Nc2ccccn2)ccc1-c1cnc([C@H]2CC[C@H](NC(=O)OC(C)C)CC2)s1 [Compound 126, isopropyl trans-N-[4-[5-[2-(ethylsulfamoyl)-4-[(pyridin-2-yl)amino]phenyl]thiazol-2-yl]cyclohexyl]carbamate] | < 100 nM
12 | CCNS(=O)(=O)c1cc(Nc2ncccn2)ccc1-c1cnc([C@H]2CC[C@H](NC(=O)OC(C)C)CC2)s1 [Compound 127, isopropyl trans-N-[4-[5-[2-(ethylsulfamoyl)-4-[(pyrimidin-2-yl)amino]phenyl]thiazol-2-yl]cyclohexyl]carbamate] | 100 to 1000 nM
13 | CCNS(=O)(=O)c1cc(Nc2cccnc2)ccc1-c1cnc([C@H]2CC[C@H](NC(=O)OC(C)C)CC2)s1 [Compound 128, isopropyl trans-N-[4-[5-[2-(ethylsulfamoyl)-4-[(pyridin-3-yl)amino]phenyl]thiazol-2-yl]cyclohexyl]carbamate] | < 100 nM
14 | CCNS(=O)(=O)c1cc(Nc2ccnn2C(C)C)ccc1-c1cnc([C@H]2CC[C@H](NC(=O)OC(C)C)CC2)s1 [Compound 129, isopropyl trans-N-[4-[5-[2-(ethylsulfamoyl)-4-[(1-isopropyl-1H-pyrazol-5-yl)amino]phenyl]thiazol-2-yl]cyclohexyl]carbamate] | < 100 nM
15 | CCNS(=O)(=O)c1cc(N2CCC(O)CC2)ccc1-c1cnc([C@H]2CC[C@H](NC(=O)OC(C)C)CC2)s1 [Compound 130, isopropyl trans-N-[4-[5-[2-(ethylsulfamoyl)-4-[4-hydroxypiperidin-1-yl]phenyl]thiazol-2-yl]cyclohexyl]carbamate] | 100 to 1000 nM
16 | CCNS(=O)(=O)c1cc(N(C)CCO)ccc1-c1cnc(C2CCC(NC(=O)OC(C)C)CC2)s1 (stereo not drawn) [Compound 131, isopropyl trans-N-[4-[5-[2-(ethylsulfamoyl)-4-[(2-hydroxyethyl) (methyl))amino]phenyl]thiazol-2-yl]cyclohexyl]carbamate] | < 100 nM
17 | CCNS(=O)(=O)c1cc(N(C)CCOC)ccc1-c1cnc(C2CCC(NC(=O)OC(C)C)CC2)s1 (stereo not drawn) [Compound 132, isopropyl trans-N-[4-[5-[2-(ethylsulfamoyl)-4-[(2-methoxyethyl) (methyl))amino]phenyl]thiazol-2-yl]cyclohexyl]carbamate] | 100 to 1000 nM
18 | CCNS(=O)(=O)c1cc(N2CCS(=O)(=O)CC2)ccc1-c1cnc([C@H]2CC[C@H](NC(=O)OC(C)C)CC2)s1 [Compound 133, isopropyl trans-N-[4-[5-[2-(ethylsulfamoyl)-4-[1,1-dioxidothiomorpholino]phenyl]thiazol-2-yl]cyclohexyl]carbamate] | 1000 to 10000 nM
19 | CCNS(=O)(=O)c1cc(N2CCOCC2)ccc1-c1cnc([C@H]2CC[C@H](NC(=O)OC(C)C)CC2)s1 [Compound 134, isopropyl trans-N-[4-[5-[2-(ethylsulfamoyl)-4-[morpholino]phenyl]thiazol-2-yl]cyclohexyl]carbamate] | 100 to 1000 nM
20 | CCNS(=O)(=O)c1cc(N2CCCCC2)ccc1-c1cnc([C@H]2CC[C@H](NC(=O)OC(C)C)CC2)s1 [Compound 135, isopropyl trans-N-[4-[5-[2-(ethylsulfamoyl)-4-[piperidin-1-yl]phenyl]thiazol-2-yl]cyclohexyl]carbamate] | 100 to 1000 nM
21 | CCNS(=O)(=O)c1cc(Nc2ccnc(C(C)C)n2)ccc1-c1cnc([C@H]2CC[C@H](NC(=O)OC(C)C)CC2)s1 [Compound 136, isopropyl trans-N-[4-[5-[2-(ethylsulfamoyl)-4-[(2-isopropylpyrimidin-4-yl)amino]phenyl]thiazol-2-yl]cyclohexyl]carbamate] | < 100 nM
22 | CCNS(=O)(=O)c1cc(NC2COC2)ccc1-c1cnc([C@H]2CC[C@H](NC(=O)OC(C)C)CC2)s1 [Compound 137, isopropyl trans-N-[4-[5-[2-(ethylsulfamoyl)-4-[(oxetan-3-yl)amino]phenyl]thiazol-2-yl]cyclohexyl]carbamate] | < 100 nM
